Measured values as given in ChEMBL document CHEMBL3997820, “Synthesis and evaluation of anticonvulsant properties of new N-Mannich bases derived from pyrrolidine-2,5-dione and its 3-methyl-, 3-isopropyl, and 3-benzhydryl analogs” (Bioorg Med Chem Lett, 2017).
Activity calls are given as the source filed them. The rule behind the calls is not given here.

How the values were obtained:
Mus musculus [1] = test: Anticonvulsant activity in albino CD1 mouse assessed as protection against maximal electroshock-induced seizures at 300 mg/kg, ip measured after 4 hrs; type: functional, organism-based
Mus musculus [2] = test: Anticonvulsant activity in ip dosed albino CD1 mouse assessed as protection against 32 mA current-induced seizure by 6 Hz psychomotor test; type: functional
Mus musculus [3] = test: Anticonvulsant activity in ip dosed albino CD1 mouse assessed as protection against subcutaneous pentylenetetrazole-induced seizures; type: functional
Mus musculus [4] = test: Anticonvulsant activity in ip dosed albino CD1 mouse assessed as protection against maximal electroshock-induced seizures; type: functional
Mus musculus [5] = test: Anticonvulsant activity in albino CD1 mouse assessed as protection against 32 mA current-induced seizure at 100 mg/kg, ip after 0.5 hrs by 6 Hz psychomotor test; type: functional
Mus musculus [6] = test: Neurotoxicity in ip dosed albino CD1 mouse assessed as minimum dose required to induce motor impairment in half and more mouse measured after 4 hrs by rotarod test; type: toxicity, organism-based; conditions: in vivo
Mus musculus [7] = test: Neurotoxicity in ip dosed albino CD1 mouse assessed as minimum dose required to induce motor impairment in half and more mouse measured after 0.5 hrs by rotarod test; type: toxicity, organism-based; conditions: in vivo
Mus musculus [8] = test: Anticonvulsant activity in albino CD1 mouse assessed as protection against subcutaneous pentylenetetrazole-induced seizures at 300 mg/kg, ip measured after 0.5 hrs; type: functional, organism-based
Mus musculus [9] = test: Anticonvulsant activity in ip dosed albino CD1 mouse assessed as minimum dose required to protect subcutaneous pentylenetetrazole-induced seizures in half and more mouse measured after 4 hrs; type: functional
Mus musculus [10] = test: Anticonvulsant activity in ip dosed albino CD1 mouse assessed as minimum dose required to protect maximal electroshock-induced seizures in half and more mouse measured after 0.5 hrs; type: functional
[11] = Neurotoxicity in ip dosed albino CD1 mouse assessed as motor impairment by rotarod test; type: toxicity, organism-based; conditions: in vivo
Mus musculus [12] = test: Protection index, ratio of TD50 for motor impairment in ip dosed albino CD1 mouse to ED50 for protection against maximal electroshock-induced seizures in ip dosed albino CD1 mouse
Mus musculus [13] = test: Protection index, ratio of TD50 for motor impairment in ip dosed albino CD1 mouse to ED50 for protection against subcutaneous pentylenetetrazole-induced seizures in ip dosed albino CD1 mouse
Mus musculus [14] = test: Protection index, ratio of TD50 for motor impairment in ip dosed albino CD1 mouse to ED50 for protection against 32 mA current-induced seizure in ip dosed albino CD1 mouse by 6 Hz psychomotor test
Mus musculus [15] = test: Anticonvulsant activity in ip dosed albino CD1 mouse assessed as protection against maximal electroshock-induced seizures by measuring time to peak effect; type: functional
Mus musculus [16] = test: Anticonvulsant activity in ip dosed albino CD1 mouse assessed as protection against subcutaneous pentylenetetrazole-induced seizures by measuring time to peak effect; type: functional
Rattus norvegicus = organism: Rattus norvegicus; test: Inhibition of [3H]-BTX binding to voltage-sensitive Na+ channel site 2 in Sprague-Dawley rat cerebral cortex synaptoneurosomes at 100 uM after 60 mins by liquid scintillation spectroscopic method relative to control
Homo sapiens = organism: Homo sapiens; test: Inhibition of N-type calcium channel (unknown origin)

- inhibition (Rattus norvegicus): 29.9%
- inhibition (Homo sapiens): inactive
Compound: O=C1CC(C(c2ccccc2)c2ccccc2)C(=O)N1CN1CCOCC1 (stereo not drawn)
- Activity (Mus musculus [1]): inactive
- ED50 (Mus musculus [2]): 45.4 mg/kg
- ED50 (Mus musculus [3]): 102 mg/kg
- ED50 (Mus musculus [4]): 41 mg/kg
- Activity (Mus musculus [5]): 100%
- Activity (Mus musculus [6]): 300 mg/kg
- Activity (Mus musculus [7]): 300 mg/kg
- Activity (Mus musculus [8]): inactive
- Activity (Mus musculus [9]): 100 mg/kg
- Activity (Mus musculus [10]): 100 mg/kg
- TD50 [11]: 254 mg/kg
- Ratio TD50/ED50 (Mus musculus [12]): 6.2
- Ratio TD50/ED50 (Mus musculus [13]): 2.5
- Ratio TD50/ED50 (Mus musculus [14]): 5.59
- Time (Mus musculus [15]): 0.5 h
- Time (Mus musculus [16]): 4 h
